Entries after “also recorded” stand apart in the source; their conditions may differ. Bridges are numbered along the chain shown (N, C = ends). Where no end group is shown, it is not given here.

The test system of data set [1] is anti-MPA. In words: Plate-based phage ELISA, direct and competitive. The class given is binding. The procedure:
The assay was carried out at room temperature (RT). The biotinylated anti-MPA (Supporting Information) [5 μg mL^–1 in the assay buffer (SuperBlock supplemented with 0.05% Tween-20); 100 μL per well] was immobilized on streptavidin-coated wells (30 min), followed by three-time washes with PBST. The wells were then blocked with 280 μL of assay buffer for 30 min and washed again three times with PBS. Then, the amplified phage stock (between 10^10 and 10^11 pfu mL^–1; 100 μL per well) was added to the wells in assay buffer and incubated for 1 h with slow shaking. After washing the wells as described above, the HRP-conjugated anti-M13 monoclonal antibody (1:5000 dilution in assay buffer; 100 μL per well) was added to the wells and incubated for 1 h. Finally, the plate was washed three times as described above and 100 μL of ABTS was added to the wells. After 5 min, absorbance at 405 nm was measured in a Varioskan plate reader (Thermo Scientific).
(§1) Briefly, black microtiter plates were blocked with 280 μL of assay buffer for 1 h at RT and subsequently washed three times with PBS. Then, the biotinylated anti-MPA (1.2 μg mL^–1) and neutravidin-coated magnetic beads (125 μg mL^–1) functionalized as described before,[18] were added to the wells in the assay buffer (total volume 260 μL per well), and incubated for 30 min at RT. After washing the beads using a plate washer with a magnetic support, the phage clone (10^11 pfu mL^–1) and increasing concentrations of free MPA were added to the wells (in assay buffer, 60 μL per well) and incubated for 30 min at RT. The beads were washed again to remove the excess, followed by incubation with HRP-conjugated anti-M13 antibody (1:5000 dilution in assay buffer; 80 μL per well) for 30 min at RT. Finally, after washing, 80 μL of Amplex UltraRed solution was added to each well, and the fluorescence was monitored with a CLARIOstar microplate reader (BMG Labtech) (λex = 530 nm and λem = 590 nm).
In general terms: In an ELISA, binding on a coated surface is turned into a signal by an enzyme label.

The conditions of data set [2]: human, in vivo.
Description: Volunteers donated whole blood samples with permission from the Ethics Committee from Hospital Clínico Universitario de Valladolid, Spain (no. PI 21-2245). The blood samples were kept at 20 °C during transport and storage. The samples were treated following the procedure described previously (see the Supporting Information for details).[11]
100µL of a 0.1 µg mL−1 bi o -A2 solution were added to the neutravidin-functionalized beads
solution as described before. After a 30-min incubation and a similar washing step, 100 µL of a
solution containing 0.5µg mL −1 of anti-MPA and different concentrations of free MPA,
previously incubated during 10 min, were added to the beads and incubated for another 30 m in.
After washing, an anti-IgG-HRP antibody was added, incubated 30 min and washed thereafter.
Finally, 80 µL of Amplex UltraRed was added and the fluorescence was monitored as described
The optimized separation of the three metabolites was performed in gradient elution mode,
quantified using an internal standard (MPA-LuciferYellow) calibration model using a nine-point
calibration curve, with a concentration range (0.5–80 ng mL −1 for MPA; 50–15000ng mL−1 f or
MPAG and 12– 250ng mL−1 for Acyl-MPAG) for the three metabolites. […]
analyzed. Free MPA was analyzed in plasma samples after a 1:8 dilution in SuperBlock + 0.05% […]
Data set [3] has as its system biotinylated anti-MPA Fab antibody. The experiment in a line: Bioluminescent bead-based competitive immunoassay with A2-NanoLuc / NanoLuc-A2 tracer. As to conditions: for Cross-reactivity: IC50 for MPA divided by the IC50 of the interferent. The class given is binding. As for the experimental part: (§2) To detect MPA with the A2-NanoLuc fusion protein, a bead-based assay was carried out on a black microtiter well plate by immobilizing the biotinylated anti-MPA onto streptavidin-coated magnetic beads (Figure 1). Briefly, the wells were first blocked with assay buffer (SuperBlock with 0.05% Tween-20) for 1 h. Then, 60 μL of 5 μg mL^–1 biotinylated anti-MPA in assay buffer and 20 μL of streptavidin beads (1:50 dilution from the stock) were added to the wells and incubated for 30 min at RT. After washing three times with PBST, 60 μL of a solution containing different concentrations of MPA and 77 μg mL^–1 of the A2-NanoLuc in assay buffer was added to the wells and incubated 30 min at RT. Once the beads were washed, 60 μL of NanoGLO substrate in PBS were added and bioluminescence was measured after a 2 min incubation at 470 nm with a bandwidth of 80 nm using a CLARIOstar microplate reader.
The matrix effect was tested in the presence of different dilutions of the ultrafiltered serum samples [1/2, 1/6, and 1/8, (v/v)], treated following a previously described procedure,[11] in PBST. […] Therefore, such dilution was used for further experiments.

The test system of data set [4] is anti-MPA Fab antibody. In words: SPR (Biacore T200), 1:1 Langmuir kinetics, binding to immobilized anti-MPA Fab. As to conditions: for Dissociation rate constant kd: Biacore T200, CM5 chip, anti-MPA (14) Fab immobilized, anti-OTA Fab reference, 1x PBS-P, +25 °C, dissociation phase 5 min, averages (± SE), seven concentrations; for Binding to anti-MPA Fab surface: SPR, concentration-dependent responses. An excerpt:
To compare the binding properties of the biotinylated cyclic peptide and MPA toward the anti-MPA antibody, label-free SPR technology was applied. In the binding experiments, previously identified, produced, and purified Fab antibodies recognizing either MPA or ochratoxin A were immobilized onto sensor chip surfaces.[22] The same experimental conditions were used to study the binding properties of cyclic peptide (A2) and MPA. The results are presented in Figures S3 and S4 and summarized in Table S1 (Supporting Information).
(§3) solution as described before.
(§4) (OTA) Fab fragment on reference surface (flow channel 1). As running buffer, 1× PBS-P
(§5) After dissociation phase of 5 min, regeneration
followed by stabilization period of 60s. All samples were analyzed in replicates. […]
(Surface plasmon resonance follows binding to a sensor surface in real time, without labels.)

In data set [5] the test system is anti-MPA. The experiment in a line: Bead-based competitive immunoassay with synthetic biotinylated peptide A2. The class given is binding.
Data set [6] has as its system anti-MPA. In words: Bead-based competitive phage immunoassay with clone A2. The data set is classed as binding. As to conditions: Amplex UltraRed fluorescence, n = 3. As for the experimental part: as §1
For data set [7] the following is noted: serum; cited from earlier work. An excerpt: Mycophenolic acid (MPA) is a mycotoxin produced by Penicillium fungi, and it is widely used as an immunosuppressant drug to prevent organ rejection in transplanted patients.[1] Recently, it has also been tested as a chemotherapeutic agent as it inhibits the proliferation of cancer cells.[2] Due to the small therapeutic window that MPA has, it is very important to monitor correctly its levels inside the human body.[3] MPA is mainly found in the serum, but only 1% of the total MPA exists in the free form, which is the one responsible for its pharmacological activity.[3],[4] Therefore, the availa ...

The nature of data set [8]: Biosensor analysis of blood samples of patients and healthy controls. The class given is in vivo, human. The note with it: free MPA. The procedure:
as §2, §3, §4, §5
followed by stabilization period of 60s. All samples were analyzed in replicates. The result s were
for MPAG, Acyl-MPAG and MPA respectively. The rt were reproducible between runs. Fig ure
The three metabolites were
curves was >0.99 for all compounds tested.
and centrifuged at 12,045 g for 30 min.
samples and vortexed for 5 minutes at 1000 rpm. […]

Where [9] appears, read: A2-NanoLuc bead-based bioluminescent assay, n = 3.

Regarding “ACEGLYAHWC (disulfide 2-10 (inferred)) [A2, phage clone displaying […] with a disulfide bond between the two cysteines; MPA mimetic]”, the “Signal in competitive ELISA in the presence of free MPA” value in data set [1] (100 ng/mL free MPA added with phage clone A2, data not shown) is listed as “significant decrease in the signal”. The Nonspecific binding entry in data set [1] (phage ELISA in the absence of anti-MPA) is given as “very low nonspecific binding”. For the same compound, in data set [1] (phage clone vs immobilized biotinylated anti-MPA, signal-to-background, ABTS, absorbance 405 nm), the “Phage ELISA binding to anti-MPA” value is listed as “very high signal-to-background ratio; also recorded: high specificity toward anti-MPA”.
As to `COc1c(C)c2c(c(O[C@@H]3O[C@H](C(=O)O)[C@@H](O)[C@H](O)[C@H]3O)c1C/C=C(\C)CCC(=O)O)C(=O)OC2` [MPAG, mycophenolic acid glucuronide], in data set [2], the “MPAG level in samples vs biosensor” value is reported as “below the limit of quantification of the biosensor”. Also, in data set [3] (setting [9]), the Cross-reactivity worked out at 0.03%.
With `C=CC[C@@H]1/C=C(\C)C[C@H](C)C[C@H](OC)[C@H]2O[C@@](O)(C(=O)C(=O)N3CCCC[C@H]3C(=O)O[C@H](/C(C)=C/[C@@H]3CC[C@@H](O)[C@H](OC)C3)[C@H](C)[C@@H](O)CC1=O)[C@H](C)C[C@@H]2OC` [tacrolimus], the Cross-reactivity result in data set [3] (setting [9]) is given as “lower than 0.03%”.
As for `COc1c(C)c2c(c(O)c1C/C=C(\C)CCC(=O)O[C@@H]1O[C@H](C(=O)O)[C@@H](O)[C@H](O)[C@H]1O)C(=O)OC2` [acyl-MPAG, acyl-mycophenolic acid glucuronide], the Cross-reactivity in data set [3] (setting [9]) was determined as 58%. The “Behavior in the assay compared to MPA” value in data set [3] (cross-reactivity test, A2-NanoLuc bead-based bioluminescent assay) is given as “very similar behavior to MPA”.
On to cyclosporin, for which, in data set [3] (setting [9]), the Cross-reactivity entry is “lower than 0.03%”.
As for “A(CEGLYAHWC)GGGSK(Bio)-NH2 (disulfide) [Cyclic peptide (A2)]”, in data set [4], the “Dissociation rate constant kd” value stood at 0.583 ± 0.001 s⁻¹ and the “Binding to anti-MPA Fab surface” value is on record as “showed binding to the anti-MPA Fab antibody surface”. Besides, the “Association / dissociation relative to MPA” value in data set [4] (compared to MPA–anti-MPA Fab antibody complex) was “slower association and faster dissociation”. Moreover, the “Competition with free MPA” value in data set [5] (synthetic biotinylated peptide, competitive neutravidin bead-based assay) is reported as “competition at the nanomolar level”.
Regarding `COc1c(C)c2c(c(O)c1C/C=C(\C)CCC(=O)O)C(=O)OC2` [MPA, Mycophenolic acid], in data set [4], the “Dissociation rate constant kd” value stood at 0.0741 ± 0.0004 s⁻¹. The Kd in data set [4] (MPA and anti-MPA Fab interaction, in agreement with previous SPR affinity in solution results, read-out: Affinity constant) was around 40 nM. In addition, the “Binding to anti-MPA Fab surface” value in data set [4] was “showed binding to the anti-MPA Fab antibody surface”. For the same compound, the “Dynamic range (20–80% inhibition)” value in data set [5] (biotinylated A2 peptide (0.1 µg/mL) on neutravidin beads, anti-MPA 0.5 µg/mL, Amplex UltraRed fluorescence, n = 3) is 2.4–60 ng mL^–1; in data set [6] (phage clone A2 (10^11 pfu/mL), neutravidin beads), 1.0–4.1 ng mL^–1; in data set [3] (A2-NanoLuc tracer, assay buffer, bioluminescence, n = 3), 0.64–14 ng mL^–1. In addition, the “LOD (10% inhibition)” value in data set [5] (free MPA, biotinylated A2 peptide (0.1 µg/mL) on neutravidin beads, anti-MPA 0.5 µg/mL pre-incubated 10 min with MPA, 30 min, anti-IgG-HRP, Amplex UltraRed fluorescence, n = 3) turned out to be 0.94 ng mL^–1; in data set [6] (free MPA competing with phage clone A2 (10^11 pfu/mL), neutravidin beads with biotinylated anti-MPA, assay buffer, RT, 30 min), 0.69 ng mL^–1; in data set [3] (free MPA competing with A2-NanoLuc (77 μg/mL) for biotinylated anti-MPA on streptavidin beads, assay buffer (SuperBlock + 0.05% Tween-20), RT, 30 min, bioluminescence 470 nm, n = 3), 0.26 ng mL^–1. For the same compound, in data set [7], the “Free form of total MPA” value is listed as 1%. In data set [3] (PBST vs ultrafiltered serum diluted 1/8 (v/v), p > 0.05, n = 3), the “Matrix effect on dose response curve” value was “No significant differences”. Moreover, in data set [3] (free MPA competing with A2-NanoLuc (77 μg/mL) for biotinylated anti-MPA on streptavidin beads, assay buffer, RT, 30 min, bioluminescence 470 nm, logistic fit, n = 3), the IC50 is 2.9 ± 0.5 ng mL^–1. In addition, the “MPA detected in control samples” value in data set [8] (healthy controls H1–H3) was “no MPA was detected in the control samples”. Besides, the “MPA concentration levels by patient” value in data set [8] (transplanted patients T1–T5) is “patients T1 and T2 had the highest MPA concentration levels”.
